Measurements from patent publication US20240245677A1, “SELECTED COMPOUNDS FOR TARGETED DEGRADATION OF BRD9” (C4 THERAPEUTICS, INC., priority 2021, published 2024).

How the values were obtained:
BRD9 = target: T1, BRD9 (Homo sapiens, UniProt Q9H8M2); test: BRD9 HiBiT degradation assay in 293T.166 (HEK293T.166) cells; type: cell-based; design: endogenously expressing BRD9 with HiBiT fusion tag via CRISPR; host or cells: HEK293T.166 (293T.166, BRD9-HiBiT HEK293, LgBiT by lentivirus); conditions: for DC50: 2.0 hours, read-out: HiBiT-Degradation 293T.166 BRD9 2.0 hours (DC50)
T1 sequence (Q9H8M2 1-597): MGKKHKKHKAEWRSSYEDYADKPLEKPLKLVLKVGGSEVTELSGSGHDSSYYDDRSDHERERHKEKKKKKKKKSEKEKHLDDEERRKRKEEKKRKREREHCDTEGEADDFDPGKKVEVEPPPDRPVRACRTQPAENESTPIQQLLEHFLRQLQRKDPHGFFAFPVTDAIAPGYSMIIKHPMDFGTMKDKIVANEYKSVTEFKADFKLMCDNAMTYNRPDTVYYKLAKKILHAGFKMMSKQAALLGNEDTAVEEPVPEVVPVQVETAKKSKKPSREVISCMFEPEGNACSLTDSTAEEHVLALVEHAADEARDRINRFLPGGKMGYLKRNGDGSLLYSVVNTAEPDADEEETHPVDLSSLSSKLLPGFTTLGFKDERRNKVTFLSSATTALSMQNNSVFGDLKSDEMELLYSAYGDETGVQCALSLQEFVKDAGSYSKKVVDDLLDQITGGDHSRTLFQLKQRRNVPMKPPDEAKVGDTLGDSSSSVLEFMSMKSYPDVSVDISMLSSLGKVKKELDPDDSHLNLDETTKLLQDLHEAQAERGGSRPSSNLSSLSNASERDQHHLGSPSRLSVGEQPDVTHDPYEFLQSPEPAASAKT
Description: Selected compounds were tested in a BRD9 degradation assay using the HiBit Method.
Dulbecco's modified Eagle medium (DMEM) without phenol red and fetal bovine serum (FBS) were purchased from Gibco (Grand Island, NY, USA). Nano-Glo® HiBiT Lytic Assay System was purchased from Promega (Madison, WI, USA). 293T.166 (BRD9-HiBiT) cell line, endogenously expressing BRD9 with HiBiT fusion tag via CRISPR and ectopically expressing LgBiT tag, was purchased from Promega (Madison, WI, USA). 293T.167 (BRD7-HiBiT) cell line, endogenously expressing BRD7 with HiBiT fusion tag via CRISPR and ectopically expressing LgBiT tag, was purchased from Promega (Madison, WI, USA). 293T.92 (BRD4-HiBiT) cell line, endogenously expressing BRD4 with HiBiT fusion tag via CRISPR and ectopically expressing LgBiT tag, was generated in-house. Cell culture flasks and 384-well microplates were acquired from VWR (Radnor, PA, USA).
BRD9 degradation was determined based on quantification of luminescent signal using Nano-Glo® HiBiT Lytic Assay kit. Test compounds were added to the 384-well plate from a top concentration of 10 μM with 11 points, half log titration in duplicates. 293T.166 cells were added into 384-well plates at a cell density of 10,000 cells per well. The plates were kept at 37° C. with 5% CO2 for 2 hours. BRD7 and BRD4 degradation was similarly determined with 293T.167 cells and 293T.92 cells, respectively. The cells treated in the absence of the test compound were the negative control and the cells without Nano-Glo® HiBiT Lytic reagent were the positive control. After 2-hour incubation, Nano-Glo® HiBiT Lytic Assay reagents were added to the cells. Luminescence was acquired on EnVision® Multilabel Reader (Catalog No. 2104-0010, Perkin Elmer Inc., Dumfries, VA, USA).
This assay evaluates the degradation of BRD9 induced by treatment with Compound 1 or Compound 2 as measured by luminescence using Nano-Glo® HiBiT Lytic Assay System in HEK293 cells CRISPR-edited to endogenously express HiBiT tagged BRD9 and exogenously express LgBiT protein.
Nano-Glo® HiBiT Lytic Assay System was purchased from Promega (Catalog No. N3050, Madison, WI, USA). BRD9-HiBiT HEK293 cells were purchased from Promega (Catalog No. CS302348, Madison, WI, USA). The cells were maintained in Dulbecco's modified Eagle medium (DMEM) without phenol red (Catalog No. 12430112, ThermoFisher Scientific, Waltham, MA, USA) supplemented with 10% fetal bovine serum (FBS) (Catalog No. 16000-044, Gibco, Grand Island, NY, USA) at 37° C. in an atmosphere of 5% CO2 in air. The HiBiT polypeptide tag was introduced into the C-terminus of the endogenous BRD9 locus by CRISPR-Cas9 and the LgBiT protein was introduced via Lentiviral infection to produce the modified HEK293T.166 cell line. The HiBiT polypeptide and LgBiT protein allow reconstitution of NanoBiT enzyme in the cells. The Nano-Glo® HiBiT Lytic Substrate was then added and activated by the NanoBiT enzyme following cell lysis to produce a luminescent signal that is directly proportional to the amount of HiBiT-tagged BRD9.
The HEK293T.166 cells were routinely sub-cultured to maintain cell density between 30-80% confluence, not to exceed 20 passages. Cells were washed with PBS pH 7.4 (Catalog No. 10010049, ThermoFisher Scientific, Waltham, MA, USA), trypsinized for 5 minutes at 37° C., and resuspended in fresh growth media without phenol red. An aliquot was diluted 2× with Trypan Blue solution 0.4% (Catalog No. 15250061, ThermoFisher Scientific, Waltham, MA, USA) and cell count determined. Cell concentration was adjusted with growth media without phenol red to 3.3×10^5 cells/mL.
Compound 1 or Compound 2 was prepared by dissolving neat compounds in DMSO (Catalog No. D8418, Sigma-Aldrich, Inc., St. Louis, MO, USA) to generate 10 mM stock solution and stored at −20° C. […]

[1] = Solubility study in aqueous media at 37° C.; conditions: for Solubility: target 10 mg/5 mL, LOQ: 50 μg/mL
[2] = Hygroscopicity by DVS at 25° C.; type: physicochemical
Description: Hygroscopicity of Form A and Form N was investigated by DVS at 25° C. […] Form A converted to Form K after the DVS test. Form K is a metastable hydrate. It reverted back to Form A after exposure to ambient condition.
Hygroscopicity of the free base Pattern A* and the urea cocrystal Form P were evaluated by DVS at 25° C.

[3] = pH 4.5, 50 mM acetate buffer, 2 h
[4] = pH 4.5, 50 mM acetate buffer, 24 h

COc1cc(-c2cn(C)c(=O)c(C)c2C)cc(OC)c1CN1CC[C@H](N2CCN(c3ccc(N[C@@H]4CCC(=O)NC4=O)cc3F)CC2)C(F)(F)C1 [Compound 2]
% BRD9 Remaining Relative to Vehicle Control at 2 hr, Mean (BRD9; 0.010 nM): 103.0% | % BRD9 Remaining Relative to Vehicle Control at 2 hr, Mean (BRD9; 0.032 nM): 95.9% | % BRD9 Remaining Relative to Vehicle Control at 2 hr, Mean (BRD9; 0.100 nM): 105.0% | % BRD9 Remaining Relative to Vehicle Control at 2 hr, Mean (BRD9; 0.315 nM): 103.3% | % BRD9 Remaining Relative to Vehicle Control at 2 hr, Mean (BRD9; 0.997 nM): 105.4% | % BRD9 Remaining Relative to Vehicle Control at 2 hr, Mean (BRD9; 3.15 nM): 100.2% | % BRD9 Remaining Relative to Vehicle Control at 2 hr, Mean (BRD9; 10.0 nM): 87.1% | % BRD9 Remaining Relative to Vehicle Control at 2 hr, Mean (BRD9; 31.7 nM): 75.4% | % BRD9 Remaining Relative to Vehicle Control at 2 hr, Mean (BRD9; 100 nM): 49.0% | % BRD9 Remaining Relative to Vehicle Control at 2 hr, Mean (BRD9; 316 nM): 33.1% | % BRD9 Remaining Relative to Vehicle Control at 2 hr, Mean (BRD9; 999 nM): 39.0% | DC50 (BRD9; 293T.166 cells): < 100 nM | Emax (BRD9; BRD9-HiBiT, 293T.166 cells, 2 hours, read-out: Mean Emax (%) ± SD): 33.1 ± 9.92% | Dmax (BRD9; HEK293T.166 cells, 2-hour treatment, read-out: maximal degradation of BRD9): ~70%

COc1cc(-c2cn(C)c(=O)c(C)c2C)cc(OC)c1CN1CC[C@@H](N2CCN(c3ccc(N[C@H]4CCC(=O)NC4=O)cc3F)CC2)C(F)(F)C1 [Compound 3]
DC50 (BRD9; 293T.166 cells): < 100 nM

COc1cc(-c2cn(C)c(=O)c(C)c2C)cc(OC)c1CN1CC[C@@H](N2CCN(c3ccc(N[C@@H]4CCC(=O)NC4=O)cc3F)CC2)C(F)(F)C1 [Compound 4]
DC50 (BRD9; 293T.166 cells): < 100 nM

COc1cc(-c2cn(C)c(=O)c(C)c2C)cc(OC)c1CN1CC[C@H](N2CCN(c3ccc(N[C@H]4CCC(=O)NC4=O)cc3F)CC2)C(F)(F)C1.NC(N)=O [Urea cocrystal Pattern P]
pH ([1]; FaSSIF-v1, pH 6.5, 2 h): pH: 6.5 | Solubility ([1]; FaSSIF-v1, pH 6.5, 2 h): <LOQ | pH ([1]; FaSSIF-v1, pH 6.5, 24 h): pH: 6.5 | Solubility ([1]; FaSSIF-v1, pH 6.5, 24 h): <LOQ | pH ([1]; FeSSIF-v1, pH 5.0, 2 h): pH: 5.0 | Solubility ([1]; FeSSIF-v1, pH 5.0, 2 h): 280 µg/mL | pH ([1]; FeSSIF-v1, pH 5.0, 24 h): pH: 4.9 | Solubility ([1]; FeSSIF-v1, pH 5.0, 24 h): 340 µg/mL | pH ([1]; SGF, pH 1.8, 2 h): pH: 2.4 | Solubility ([1]; SGF, pH 1.8, 2 h): >2000 µg/mL | pH ([1]; SGF, pH 1.8, 24 h): pH: 2.4 | Solubility ([1]; SGF, pH 1.8, 24 h): >2000 µg/mL | pH ([1]; pH 1.0 (0.1N HCl), 2 h): pH: 1.0 | Solubility ([1]; pH 1.0 (0.1N HCl), 2 h): >2000 µg/mL | pH ([1]; pH 1.0 (0.1N HCl), 24 h): pH: 1.0 | Solubility ([1]; pH 1.0 (0.1N HCl), 24 h): >2000 µg/mL | pH [1, 3]: pH: 4.6 | Solubility [1, 3]: 240 µg/mL | pH [1, 4]: pH: 4.5 | Solubility [1, 4]: 140 µg/mL | XRPD after DVS test [2]: No form change | water uptake from 40% RH to 90% RH ([2]; DVS): <90% RH, 1.6% water | water uptake from 40% RH to 95% RH ([2]; DVS): 3.1% water uptake from | 1st desorp. (%) ([2]; DVS, 0% RH): 0.0% | 2nd sorp. (%) ([2]; DVS, 0% RH): 0.0% | 1st desorp. (%) ([2]; DVS, 10% RH): 2.2% | 2nd sorp. (%) ([2]; DVS, 10% RH): 1.2% | 1st desorp. (%) ([2]; DVS, 20% RH): 3.1% | 2nd sorp. (%) ([2]; DVS, 20% RH): 2.8% | 1st desorp. (%) ([2]; DVS, 30% RH): 3.7% | 2nd sorp. (%) ([2]; DVS, 30% RH): 3.3% | 1st desorp. (%) ([2]; DVS, 40% RH): 4.2% | 1st sorp. (%) ([2]; DVS, 40% RH): 4.0% | 2nd desorp. (%) ([2]; DVS, 40% RH): 4.2% | 2nd sorp. (%) ([2]; DVS, 40% RH): 3.7% | 1st desorp. (%) ([2]; DVS, 50% RH): 4.5% | 1st sorp. (%) ([2]; DVS, 50% RH): 4.2% | 2nd desorp. (%) ([2]; DVS, 50% RH): 4.5% | 2nd sorp. (%) ([2]; DVS, 50% RH): 4.1% | 1st desorp. (%) ([2]; DVS, 60% RH): 4.7% | 1st sorp. (%) ([2]; DVS, 60% RH): 4.4% | 2nd desorp. (%) ([2]; DVS, 60% RH): 4.7% | 2nd sorp. (%) ([2]; DVS, 60% RH): 4.4% | 1st desorp. (%) ([2]; DVS, 70% RH): 5.0% | 1st sorp. (%) ([2]; DVS, 70% RH): 4.7% | 2nd desorp. (%) ([2]; DVS, 70% RH): 5.0% | 2nd sorp. (%) ([2]; DVS, 70% RH): 4.8% | 1st desorp. (%) ([2]; DVS, 80% RH): 5.2% | 1st sorp. (%) ([2]; DVS, 80% RH): 5.1% | 2nd desorp. (%) ([2]; DVS, 80% RH): 5.3% | 2nd sorp. (%) ([2]; DVS, 80% RH): 5.1% | 1st desorp. (%) ([2]; DVS, 90% RH): 5.8% | 1st sorp. (%) ([2]; DVS, 90% RH): 5.6% | 2nd desorp. (%) ([2]; DVS, 90% RH): 5.8% | 2nd sorp. (%) ([2]; DVS, 90% RH): 5.6% | 1st desorp. (%) ([2]; DVS, 95% RH): 7.1% | 1st sorp. (%) ([2]; DVS, 95% RH): 7.1% | 2nd desorp. (%) ([2]; DVS, 95% RH): 7.3% | 2nd sorp. (%) ([2]; DVS, 95% RH): 7.3%
